≈ marks a conversion by molar mass, not a printed value.
Key:
Test in all cases: In vitro antibacterial evaluation: minimum inhibitory concentration (MIC), broth dilution method
Format in all cases: cell-based
Settings in all cases: 18 hours at 35° C.
Enterococcus sp. = tested on: Enterococcus sp.
Outline: (§1)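 First, organisms are seeded at 5×10^5 CFU/mL into Muller-Hinton II […]. Next, antibiotic is applied across 64-0.06 μg/mL by broth dilution (NCCLS M7-A2). Finally, the lowest inhibitory concentration is recorded as MIC.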

Escherichia coli = tested on: Escherichia coli
Outline: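 MIC read as lowest drug level preventing visible growth. Organisms at 5×10^5 CFU/mL were exposed to a 64-0.06 μg/mL dilution series in Muller-Hinton II […] following NCCLS broth dilution standard M7-A2.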

Staphylococcus sp. = tested on: Staphylococcus sp.
Outline: as §1

Streptococcus sp. = tested on: Streptococcus sp.
Outline: as §1

[1] = broth dilution, inoculum 5×10^5 CFU/mL
[2] = Streptococcus agalactiae (GC 4564)
[3] = Streptococcus pneumoniae (ATCC 6301)
[4] = Streptococcus pneumoniae (GC 1894)
[5] = Streptococcus pneumoniae (GC 4565)
[6] = Streptococcus pyogenes (GC 4563)

For `CC(c1ccccc1)C1NC(=O)CNC(=O)C(CO)NC(=O)C(CC2CNC(=N)N2C2OC(CO)C(O)C(O)C2O)NC(=O)C(CC2CNC(=N)N2)NC(=O)C(Cc2ccc(OC3OC(CO)C(OC4OC(CO)C(OCc5ccc(OCc6ccccc6)cc5)C(O)C4O)C(O)C3O)cc2)NC1=O` (centres unmarked) [Example 246a], the “MIC Enterococcus avium (GC 4558)” value (Enterococcus sp.) was 2 µg/mL (≈ 1.37 µM), the “MIC Enterococcus faecalis (ATCC 29212)” value (Enterococcus sp.; Enterococcus faecalis (ATCC 29212)) was 4 µg/mL (≈ 2.74 µM) and the “MIC Enterococcus faecalis (GC 2242)” value (Enterococcus sp.; Enterococcus faecalis (GC 2242)) was 4 µg/mL (≈ 2.74 µM). For the same compound, the “MIC Enterococcus faecalis (GC 2691)” value (Enterococcus sp.; Enterococcus faecalis (GC 2691)) was 8 µg/mL (≈ 5.48 µM), the “MIC Enterococcus faecalis (GC 3059)” value (Enterococcus sp.; Enterococcus faecalis (GC 3059)) was 4 µg/mL (≈ 2.74 µM) and the “MIC Enterococcus faecalis (GC 4552)” value (Enterococcus sp.; Enterococcus faecalis (GC 4552)) was 4 µg/mL (≈ 2.74 µM). For the same compound, the “MIC Enterococcus faecalis (GC 4553)” value (Enterococcus sp.; Enterococcus faecalis (GC 4553)) was 2 µg/mL (≈ 1.37 µM), the “MIC Enterococcus faecalis (GC 4554)” value (Enterococcus sp.; Enterococcus faecalis (GC 4554)) was 4 µg/mL (≈ 2.74 µM) and the “MIC Enterococcus faecalis (GC 6189)” value (Enterococcus sp.; Enterococcus faecalis (GC 6189)) was 4 µg/mL (≈ 2.74 µM). For the same compound, the “MIC Enterococcus faecium (GC 2243)” value (Enterococcus sp.; Enterococcus faecium (GC 2243)) was 4 µg/mL (≈ 2.74 µM), the “MIC Enterococcus faecium (GC 4556)” value (Enterococcus sp.; Enterococcus faecium (GC 4556)) was 4 µg/mL (≈ 2.74 µM) and the “MIC Enterococcus faecium (GC 4557)” value (Enterococcus sp.) was 2 µg/mL (≈ 1.37 µM). The “MIC Enterococcus faecalis (GC 2242)” value (Enterococcus sp.; [1]) was 4 µg/mL (≈ 2.74 µM), the “MIC Enterococcus faecalis (GC 2691)” value (Enterococcus sp.; [1]) was 8 µg/mL (≈ 5.48 µM) and the “MIC Enterococcus faecalis (GC 3059)” value (Enterococcus sp.; [1]) was 4 µg/mL (≈ 2.74 µM). For the same compound, the “MIC Escherichia coli (ATCC 25922)” value (Escherichia coli; Escherichia coli (ATCC 25922)) was 16 µg/mL (≈ 11 µM), the “MIC Escherichia coli (GC 4559)” value (Escherichia coli; Escherichia coli (GC 4559)) was 16 µg/mL (≈ 11 µM) and the “MIC Escherichia coli (GC 4560)” value (Escherichia coli) was 2 µg/mL (≈ 1.37 µM). For the same compound, the “MIC Coagulase Negative Staphylococcus (GC 4547)” value (Staphylococcus sp.) was 1 µg/mL (≈ 0.685 µM), the “MIC Coagulase Negative Staphylococcus (GC 4548)” value (Staphylococcus sp.) was 1 µg/mL (≈ 0.685 µM) and the “MIC Coagulase Negative Staphylococcus (GC 4549)” value (Staphylococcus sp.) was 1 µg/mL (≈ 0.685 µM). The “MIC Coagulase Negative Staphylococcus (GC 4551)” value (Staphylococcus sp.) was 2 µg/mL (≈ 1.37 µM), the “MIC Coagulase Negative Staphylococcus (GC 6257)” value (Staphylococcus sp.) was 2 µg/mL (≈ 1.37 µM) and the “MIC Staphylococcus aureus (ATCC 29213)” value (Staphylococcus sp.) was 2 µg/mL (≈ 1.37 µM). For the same compound, the “MIC Staphylococcus aureus (GC 1131)” value (Staphylococcus sp.; Staphylococcus aureus (GC 1131)) was 4 µg/mL (≈ 2.74 µM), the “MIC Staphylococcus aureus (GC 3051)” value (Staphylococcus sp.) was 1 µg/mL (≈ 0.685 µM) and the “MIC Staphylococcus aureus (GC 3053)” value (Staphylococcus sp.; Staphylococcus aureus (GC 3053)) was 2 µg/mL (≈ 1.37 µM). The “MIC Staphylococcus aureus (GC 4541)” value (Staphylococcus sp.) was 1 µg/mL (≈ 0.685 µM), the “MIC Staphylococcus aureus (GC 4542)” value (Staphylococcus sp.) was 1 µg/mL (≈ 0.685 µM) and the “MIC Staphylococcus aureus (GC 4544)” value (Staphylococcus sp.) was 2 µg/mL (≈ 1.37 µM). For the same compound, the “MIC Staphylococcus aureus (GC 4545)” value (Staphylococcus sp.) was 2 µg/mL (≈ 1.37 µM), the “MIC Staphylococcus aureus-SMITH (GC 4543)” value (Staphylococcus sp.) was 1 µg/mL (≈ 0.685 µM) and the “MIC Staphylococcus haemolyticus (GC 4546)” value (Staphylococcus sp.; Staphylococcus haemolyticus (GC 4546)) was 1 µg/mL (≈ 0.685 µM). The “MIC Streptococcus agalactiae (GC 4564)” value (Streptococcus sp.; [2]) was 0.5 µg/mL (≈ 0.343 µM), the “MIC Streptococcus pneumoniae (ATCC 6301)” value (Streptococcus sp.; [3]) was 0.25 µg/mL (≈ 0.171 µM) and the “MIC Streptococcus pneumoniae (GC 1894)” value (Streptococcus sp.; [4]) was <0.12 µg/mL. For the same compound, the “MIC Streptococcus pneumoniae (GC 4565)” value (Streptococcus sp.; [5]) was 0.25 µg/mL (≈ 0.171 µM), the “MIC Streptococcus pyogenes (GC 4563)” value (Streptococcus sp.; [6]) was 0.5 µg/mL (≈ 0.343 µM) and the “MIC Streptococcus agalactiae (GC 4564)” value (Streptococcus sp.; [1]) was 0.5 µg/mL (≈ 0.343 µM). For the same compound, the “MIC Streptococcus pneumoniae (ATCC 6301)” value (Streptococcus sp.; [1]) was 0.25 µg/mL (≈ 0.171 µM), the “MIC Streptococcus pneumoniae (GC 1894)” value (Streptococcus sp.; [1]) was <0.12 µg/mL and the “MIC Streptococcus pneumoniae (GC 4565)” value (Streptococcus sp.; [1]) was 0.25 µg/mL (≈ 0.171 µM). For the same compound, the “MIC Streptococcus pyogenes (GC 4563)” value (Streptococcus sp.; [1]) was 0.5 µg/mL (≈ 0.343 µM).

`CC(c1ccccc1)C1NC(=O)CNC(=O)C(CO)NC(=O)C(CC2CNC(=N)N2C2OC(CO)C(O)C(O)C2O)NC(=O)C(CC2CNC(=N)N2)NC(=O)C(Cc2ccc(OC3OC(CO)C(OC4OC(CO)C(O)C(OCc5ccc(OCc6ccccc6)cc5)C4O)C(O)C3O)cc2)NC1=O` (centres unmarked) [Example 246b] was tested, and the “MIC Enterococcus avium (GC 4558)” value (Enterococcus sp.) was 64 µg/mL (≈ 43.8 µM), the “MIC Enterococcus faecium (GC 4557)” value (Enterococcus sp.) was 32 µg/mL (≈ 21.9 µM) and the “MIC Escherichia coli (GC 4560)” value (Escherichia coli) was 32 µg/mL (≈ 21.9 µM). For the same compound, the “MIC Coagulase Negative Staphylococcus (GC 4547)” value (Staphylococcus sp.) was 64 µg/mL (≈ 43.8 µM), the “MIC Coagulase Negative Staphylococcus (GC 4548)” value (Staphylococcus sp.) was 64 µg/mL (≈ 43.8 µM) and the “MIC Coagulase Negative Staphylococcus (GC 4549)” value (Staphylococcus sp.) was 32 µg/mL (≈ 21.9 µM). The “MIC Coagulase Negative Staphylococcus (GC 4551)” value (Staphylococcus sp.) was 64 µg/mL (≈ 43.8 µM), the “MIC Coagulase Negative Staphylococcus (GC 6257)” value (Staphylococcus sp.) was 64 µg/mL (≈ 43.8 µM) and the “MIC Staphylococcus aureus (ATCC 29213)” value (Staphylococcus sp.) was 64 µg/mL (≈ 43.8 µM). For the same compound, the “MIC Staphylococcus aureus (GC 3051)” value (Staphylococcus sp.) was 64 µg/mL (≈ 43.8 µM), the “MIC Staphylococcus aureus (GC 4541)” value (Staphylococcus sp.) was 64 µg/mL (≈ 43.8 µM) and the “MIC Staphylococcus aureus (GC 4542)” value (Staphylococcus sp.) was 64 µg/mL (≈ 43.8 µM). For the same compound, the “MIC Staphylococcus aureus (GC 4544)” value (Staphylococcus sp.) was 64 µg/mL (≈ 43.8 µM), the “MIC Staphylococcus aureus (GC 4545)” value (Staphylococcus sp.) was 64 µg/mL (≈ 43.8 µM) and the “MIC Staphylococcus aureus-SMITH (GC 4543)” value (Staphylococcus sp.) was >64 µg/mL. The “MIC Streptococcus agalactiae (GC 4564)” value (Streptococcus sp.; [2]) was 64 µg/mL (≈ 43.8 µM), the “MIC Streptococcus pneumoniae (ATCC 6301)” value (Streptococcus sp.; [3]) was 32 µg/mL (≈ 21.9 µM) and the “MIC Streptococcus pneumoniae (GC 1894)” value (Streptococcus sp.; [4]) was 32 µg/mL (≈ 21.9 µM). For the same compound, the “MIC Streptococcus pneumoniae (GC 4565)” value (Streptococcus sp.; [5]) was 64 µg/mL (≈ 43.8 µM), the “MIC Streptococcus pyogenes (GC 4563)” value (Streptococcus sp.; [6]) was 64 µg/mL (≈ 43.8 µM) and the “MIC Streptococcus agalactiae (GC 4564)” value (Streptococcus sp.; [1]) was 64 µg/mL (≈ 43.8 µM). For the same compound, the “MIC Streptococcus pneumoniae (ATCC 6301)” value (Streptococcus sp.; [1]) was 32 µg/mL (≈ 21.9 µM), the “MIC Streptococcus pneumoniae (GC 1894)” value (Streptococcus sp.; [1]) was 32 µg/mL (≈ 21.9 µM) and the “MIC Streptococcus pneumoniae (GC 4565)” value (Streptococcus sp.; [1]) was 64 µg/mL (≈ 43.8 µM). The “MIC Streptococcus pyogenes (GC 4563)” value (Streptococcus sp.; [1]) was 64 µg/mL (≈ 43.8 µM).
